From ChEMBL document CHEMBL1955863, “Intramolecular hydrogen bonding: a potential strategy for more bioavailable inhibitors of neuronal nitric oxide synthase” (Bioorg Med Chem, 2012) come the findings set out here.

Assay [1] in a line: Selectivity ratio of Ki for mouse iNOS to Ki for rat nNOS.
In assay [2] the target is T1, Nitric oxide synthase 1 (Rattus norvegicus, UniProt P29476). In words: Inhibition of rat nNOS expressed in HEK293T cells preincubated for 30 mins prior A23187-induced activation measured after 6 hrs by Griess assay. The class given is cell-based, HEK-293T.
Assay [3] is described as follows: Selectivity ratio of Ki for bovine eNOS to Ki for rat nNOS.
The target of assay [4] is T1, Nitric oxide synthase 1. Nature of the assay: Inhibition of recombinant rat nNOS expressed in Escherichia coli by hemoglobin capture assay.

Usually IC50 stands for the midpoint of a concentration-inhibition curve.

T1 sequence (P29476 whole entry): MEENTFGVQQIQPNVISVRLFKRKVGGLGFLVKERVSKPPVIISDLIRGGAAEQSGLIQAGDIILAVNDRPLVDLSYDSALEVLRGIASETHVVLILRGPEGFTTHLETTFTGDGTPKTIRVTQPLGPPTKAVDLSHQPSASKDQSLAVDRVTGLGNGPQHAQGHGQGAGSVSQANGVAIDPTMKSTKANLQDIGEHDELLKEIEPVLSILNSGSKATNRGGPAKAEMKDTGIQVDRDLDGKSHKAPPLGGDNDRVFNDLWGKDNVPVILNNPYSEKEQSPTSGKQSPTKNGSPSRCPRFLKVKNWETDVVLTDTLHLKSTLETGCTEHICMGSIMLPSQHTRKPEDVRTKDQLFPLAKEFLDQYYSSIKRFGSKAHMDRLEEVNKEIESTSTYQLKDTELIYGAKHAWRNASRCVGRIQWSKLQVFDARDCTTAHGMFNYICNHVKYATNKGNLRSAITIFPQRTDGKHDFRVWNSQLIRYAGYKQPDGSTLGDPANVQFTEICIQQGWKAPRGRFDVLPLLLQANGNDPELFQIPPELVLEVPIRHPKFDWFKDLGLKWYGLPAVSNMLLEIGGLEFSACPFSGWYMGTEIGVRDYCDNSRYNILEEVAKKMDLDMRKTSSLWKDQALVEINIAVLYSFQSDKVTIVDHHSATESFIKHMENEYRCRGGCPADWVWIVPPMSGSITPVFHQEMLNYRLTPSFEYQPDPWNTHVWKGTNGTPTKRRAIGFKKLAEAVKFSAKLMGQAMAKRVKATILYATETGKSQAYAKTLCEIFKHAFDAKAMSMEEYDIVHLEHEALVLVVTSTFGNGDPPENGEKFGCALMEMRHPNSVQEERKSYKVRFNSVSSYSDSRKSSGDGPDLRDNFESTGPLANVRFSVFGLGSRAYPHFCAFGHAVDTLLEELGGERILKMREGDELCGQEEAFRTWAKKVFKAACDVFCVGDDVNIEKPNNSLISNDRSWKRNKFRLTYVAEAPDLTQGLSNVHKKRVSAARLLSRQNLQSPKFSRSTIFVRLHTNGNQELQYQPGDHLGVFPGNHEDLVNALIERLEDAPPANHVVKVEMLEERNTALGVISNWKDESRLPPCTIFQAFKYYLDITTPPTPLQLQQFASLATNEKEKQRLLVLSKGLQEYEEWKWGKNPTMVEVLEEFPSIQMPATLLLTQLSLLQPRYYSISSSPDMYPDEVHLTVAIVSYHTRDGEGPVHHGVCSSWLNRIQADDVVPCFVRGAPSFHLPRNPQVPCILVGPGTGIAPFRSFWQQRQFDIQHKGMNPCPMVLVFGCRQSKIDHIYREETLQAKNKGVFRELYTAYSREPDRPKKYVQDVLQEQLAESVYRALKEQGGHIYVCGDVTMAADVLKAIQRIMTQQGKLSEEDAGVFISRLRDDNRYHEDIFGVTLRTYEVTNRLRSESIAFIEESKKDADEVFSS

With `Cc1cc(N)nc(C[C@H]2CNC[C@H]2OCCNCc2ccccc2F)c1`, the Ratio Ki in assay [1] worked out at 105; in assay [3] it was 98. At Nitric oxide synthase 1 [2], this compound returned an IC50 of 11 µM.

In the case of `Cc1cc(N)nc(C[C@H]2CNC[C@H]2OCCNCc2ccco2)c1`, the Ratio Ki in assay [1] worked out at 92; in assay [3] it was 169. For the same compound, the IC50 against Nitric oxide synthase 1 [2] stood at 100 µM.

Consider `COc1ccccc1CNCCO[C@@H]1CNC[C@@H]1Cc1cc(C)cc(N)n1`, for which the values for the Ratio Ki in assay [1] and in assay [3] were 139 and 93, respectively. It took 22 µM to reach half-maximal inhibition at Nitric oxide synthase 1 [2] (IC50).

As for `Cc1cc(N)nc(C[C@H]2CNC[C@H]2OCCNCc2ccccc2O)c1`, the Ratio Ki in assay [1] worked out at 143; in assay [3] it was 93. This compound gave an IC50 against Nitric oxide synthase 1 [2] of 43 µM.

Take `Cc1cc(C)nc(N)c1`: the figures for the IC50 at Nitric oxide synthase 1 [4] and against Nitric oxide synthase 1 [2] were 0.05 µM and 25 µM, respectively.
